This note sets out measurements from patent US7728028B2, “Substituted imidazoline compounds” (Gruenenthal GmbH, priority 2005, dated 2010).

What is called inhibition is how much of the control response was suppressed. As a reminder, the melting point is the temperature of the solid-liquid transition.

For one series, the target named is T1, human μ-opiate receptor (Homo sapiens, UniProt P35372).
T1 construct: purchased PerkinElmer Life Sciences, Zaventem, Belgium RB-HOM; host or cells: CHO-K1 cells (recombinant expression; membrane preparation)
T1 sequence (P35372 whole entry): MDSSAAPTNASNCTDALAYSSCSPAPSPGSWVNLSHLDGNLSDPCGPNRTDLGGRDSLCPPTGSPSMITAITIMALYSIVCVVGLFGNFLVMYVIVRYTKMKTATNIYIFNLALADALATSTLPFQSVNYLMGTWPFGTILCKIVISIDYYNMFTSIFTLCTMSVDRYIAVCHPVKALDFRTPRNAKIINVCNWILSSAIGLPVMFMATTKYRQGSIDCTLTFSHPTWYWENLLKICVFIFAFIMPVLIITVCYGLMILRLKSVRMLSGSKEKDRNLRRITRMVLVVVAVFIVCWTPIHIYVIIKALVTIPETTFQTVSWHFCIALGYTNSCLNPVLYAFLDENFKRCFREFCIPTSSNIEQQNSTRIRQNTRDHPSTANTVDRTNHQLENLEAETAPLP
Nature of the series: Affinity for the human μ-opiate receptor ([3H]-naloxone displacement, SPA). As to conditions: Table 2, Examples 11-161; test substance 1 μmole/l; inhibition of specific [3H]-naloxone binding; CHO-K1 membranes; read-out: μ-Opioid receptor, % inhibition [1 μM]. A digest of the protocol:
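CHO-K1 membranes expressing the receptor, incubated 90 min at room temperature with 1 nmol/l [3H]-naloxone and WGA-SPA beads in 50 mmol/l Tris-HCl with 0.06% BSA. Non-specific binding defined with 100 μmol/l naloxone. Value is % inhibition of specific binding at 1 μmol/l test substance.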
With `CCCN1C=NC(CCC)(C(=O)OC)C1CC1CCC(C(c2cccc(F)c2)N(C)C)CC1` (stereo not drawn) [Example 111, 5-{4-[dimethylamino-(3-fluorophenyl)-methyl]-cyclohexylmethyl}-1,4-dipropyl-4,5-dihydro-1H-imidazole-4-carboxylic acid methyl ester], the inhibition at 1 µM worked out at 90%. Take `COC(=O)C1(CC(C)C)N=CN(C2CCCCC2)C1CC1CCC(C(c2ccc(Cl)cc2)N(C)C)CC1` (stereo not drawn) [Example 17, 5-{4-[(4-chlorophenyl)-dimethylaminomethyl]-cyclohexylmethyl}-1-cyclohexyl-4-isobutyl-4,5-dihydro-1H-imidazole-4-carboxylic acid methyl ester]: the inhibition at 1 µM was 96%.

Consider `COC(=O)CCC1(C(=O)OC)N=CN(CCc2ccccc2)C1CC1CCC(C(c2cccc(F)c2)N(C)C)CC1` (stereo not drawn) [Example 80, 5-{4-[dimethylamino-(3-fluorophenyl)-methyl]-cyclohexylmethyl}-4-(2-methoxycarbonylethyl)-1-phenethyl-4,5-dihydro-1H-imidazole-4-carboxylic acid methyl ester], for which the inhibition at 1 µM turned out to be 90%. On to `COC(=O)C1(CCSC)N=CN(C2CCCCC2)C1CC1CCC(C(c2ccc(F)cc2)N(C)C)CC1` (stereo not drawn) [Example 106, 1-cyclohexyl-5-{4-[dimethylamino-(4-fluorophenyl)-methyl]-cyclohexylmethyl}-4-(2-methylsulfanyl-ethyl)-4,5-dihydro-1H-imidazole-4-carboxylic acid methyl ester], for which the inhibition at 1 µM came to 92%. For the compound `COC(=O)C1(C)N=CN(CCc2ccccc2)C1CC1CCC(C(c2cccc(F)c2)N(C)C)CC1` (stereo not drawn) [Example 131, 5-{4-[dimethylamino-(3-fluorophenyl)-methyl]-cyclohexylmethyl}-4-methyl-1-phenethyl-4,5-dihydro-1H-imidazole-4-carboxylic acid methyl ester], the inhibition at 1 µM was found to be 100%. `CCCN1C=NC(CCC(=O)OC)(C(=O)OC)C1CC1CCC(C(CCc2ccccc2)N(C)C)CC1` (stereo not drawn) [Example 71, 5-[4-(1-dimethylamino-3-phenylpropyl)-cyclohexylmethyl]-4-(2-methoxycarbonylethyl)-1-propyl-4,5-dihydro-1H-imidazole-4-carboxylic acid methyl ester]: the inhibition at 1 µM is 78%. Take `COC(=O)C1(Cc2ccc(Cl)cc2)N=CN(Cc2ccccc2)C1C1CCC(C(c2cccc(F)c2)N(C)C)CC1` (stereo not drawn) [Example 47, 1-benzyl-4-(4-chlorobenzyl)-5-{4-[dimethylamino-(3-fluorophenyl)-methyl]-cyclohexyl}-4,5-dihydro-1H-imidazole-4-carboxylic acid methyl ester]: the inhibition at 1 µM is 74%.

For `CCCC1(C(=O)OC)N=CN(CCc2ccccc2)C1CC1CCC(C(CCc2ccccc2)N(C)C)CC1` (stereo not drawn) [Example 135, 5-[4-(1-dimethylamino-3-phenylpropyl)-cyclohexylmethyl]-1-phenethyl-4-propyl-4,5-dihydro-1H-imidazole-4-carboxylic acid methyl ester], the inhibition at 1 µM was found to be 85%. With `CCCCN1C=NC(CSCc2ccccc2)(C(=O)OC)C1CC1CCC(C(CCc2ccccc2)N(C)C)CC1` (stereo not drawn) [Example 79, 4-benzylsulfanylmethyl-1-butyl-5-[4-(1-dimethylamino-3-phenylpropyl)-cyclohexylmethyl]-4,5-dihydro-1H-imidazole-4-carboxylic acid methyl ester], the inhibition at 1 µM turned out to be 79%. As for `CCCN1C=NC(CSCc2ccccc2)(C(=O)OC)C1CC1CCC(C(c2ccc(Cl)cc2)N(C)C)CC1` (stereo not drawn) [Example 64, 4-benzylsulfanylmethyl-5-{4-[(4-chlorophenyl)-dimethylaminomethyl]-cyclohexylmethyl}-1-propyl-4,5-dihydro-1H-imidazole-4-carboxylic acid methyl ester], the inhibition at 1 µM amounted to 98%. The same measure, in the same setting: the value for `CCCN1C=NC(C)(C(=O)OC)C1CC1CCC(C(c2cccc(F)c2)N(C)C)CC1` (stereo not drawn) [Example 117, 5-{4-[dimethylamino-(3-fluorophenyl)-methyl]-cyclohexylmethyl}-4-methyl-1-propyl-4,5-dihydro-1H-imidazole-4-carboxylic acid methyl ester] was 88%; that for `COC(=O)C1(CSCc2ccccc2)N=CN(C2CCCCC2)C1CC1CCC(C(CCc2ccccc2)N(C)C)CC1` (stereo not drawn) [Example 156, 4-benzylsulfanylmethyl-1-cyclohexyl-5-[4-(1-dimethylamino-3-phenylpropyl)-cyclohexylmethyl]-4,5-dihydro-1H-imidazole-4-carboxylic acid methyl ester] was 92%; that for `COC(=O)C1(CSC)N=CN(C2CCCCC2)C1CC1CCC(C(CCc2ccccc2)N(C)C)CC1` (stereo not drawn) [Example 155, 1-cyclohexyl-5-[4-(1-dimethylamino-3-phenylpropyl)-cyclohexylmethyl]-4-methylsulfanylmethyl-4,5-dihydro-1H-imidazole-4-carboxylic acid methyl ester] was 86%. The same measure, in the same setting: the value for `COC(=O)C1(Cc2ccc(Cl)cc2)N=CN(C2CCCCC2)C1C1CCC(C(c2ccc(Cl)cc2)N(C)C)CC1` (stereo not drawn) [Example 15, 4-(4-chlorobenzyl)-5-{4-[(4-chlorophenyl)-dimethylaminomethyl]-cyclohexyl}-1-cyclohexyl-4,5-dihydro-1H-imidazole-4-carboxylic acid methyl ester] was 76%; that for `CCCCC1(C(=O)OC)N=CN(C2CCCCC2)C1C1CCC(C(c2cccc(F)c2)N(C)C)CC1` (stereo not drawn) [Example 13, 4-butyl-1-cyclohexyl-5-{4-[dimethylamino-(3-fluorophenyl)-methyl]-cyclohexyl}-4,5-dihydro-1H-imidazole-4-carboxylic acid methyl ester] was 94%; that for `CCCN1C=NC(CCSC)(C(=O)OC)C1CC1CCC(C(c2ccc(F)cc2)N(C)C)CC1` (stereo not drawn) [Example 119, 5-{4-[dimethylamino-(4-fluorophenyl)-methyl]-cyclohexylmethyl}-4-(2-methylsulfanylethyl)-1-propyl-4,5-dihydro-1H-imidazole-4-carboxylic acid methyl ester] was 90%.

Turning to `COC(=O)C1(CSCc2ccccc2)N=CN(Cc2ccccc2)C1CC1CCC(C(c2ccc(Cl)cc2)N(C)C)CC1` (stereo not drawn) [Example 101, 1-benzyl-4-benzylsulfanylmethyl-5-{4-[(4-chlorophenyl)-dimethylaminomethyl]-cyclohexylmethyl}-4,5-dihydro-1H-imidazole-4-carboxylic acid methyl ester], the inhibition at 1 µM came to 96%. Take `COC(=O)C1(CC(C)C)N=CN(Cc2ccccc2)C1C1CCC(C(c2ccc(Cl)cc2)N(C)C)CC1` (stereo not drawn) [Example 48, 1-benzyl-5-{4-[(4-chlorophenyl)-dimethylaminomethyl]-cyclohexyl}-4-isobutyl-4,5-dihydro-1H-imidazole-4-carboxylic acid methyl ester]: the inhibition at 1 µM was 93%. With `CCCCN1C=NC(CSCc2ccccc2)(C(=O)OC)C1C1CCC(C(c2cccc(F)c2)N(C)C)CC1` (stereo not drawn) [Example 67, 4-benzylsulfanylmethyl-1-butyl-5-{4-[dimethylamino-(3-fluorophenyl)-methyl]-cyclohexyl}-4,5-dihydro-1H-imidazole-4-carboxylic acid methyl ester], the inhibition at 1 µM was 88%.

Consider `CCCN1C=NC(CC(C)C)(C(=O)OC)C1C1CCC(C(c2ccc(Cl)cc2)N(C)C)CC1` (stereo not drawn) [Example 24, 5-{4-[(4-chlorophenyl)-dimethylaminomethyl]-cyclohexyl}-4-isobutyl-1-propyl-4,5-dihydro-1H-imidazole-4-carboxylic acid methyl ester], for which the inhibition at 1 µM was found to be 89%. Take `COC(=O)CCC1(C(=O)OC)N=CN(C2CCCCC2)C1CC1CCC(C(CCc2ccccc2)N(C)C)CC1` (stereo not drawn) [Example 154, 1-cyclohexyl-5-[4-(1-dimethylamino-3-phenylpropyl)-cyclohexylmethyl]-4-(2-methoxycarbonylethyl)-4,5-dihydro-1H-imidazole-4-carboxylic acid methyl ester]: the inhibition at 1 µM came to 82%. For `COC(=O)C1(CSCc2ccccc2)N=CN(C2CCCCC2)C1CC1CCC(C(c2ccc(Cl)cc2)N(C)C)CC1` (stereo not drawn) [Example 56, 4-benzylsulfanylmethyl-5-{4-[(4-chlorophenyl)-dimethylaminomethyl]-cyclohexylmethyl}-1-cyclohexyl-4,5-dihydro-1H-imidazole-4-carboxylic acid methyl ester], the inhibition at 1 µM stood at 97%. Same read-out and setting: the value for `CCCCC1(C(=O)OC)N=CN(CCC)C1C1CCC(C(c2cccc(F)c2)N(C)C)CC1` (stereo not drawn) [Example 23, 4-butyl-5-{4-[dimethylamino-(3-fluorophenyl)-methyl]-cyclohexyl}-1-propyl-4,5-dihydro-1H-imidazole-4-carboxylic acid methyl ester] was 76%.

Test system in another series: not given
Test: not given
Conditions: not given
Take `CN(C)C(c1cccc(F)c1)C1CCC(C=O)CC1` (stereo not drawn): the melting point was 40 to 43 °C.
